20 molecules from PubChem BioAssay (NCI) can be followed below.

Test systems include COLO 205 colon; KM12 colon; LOX IMVI melanoma; RPMI-8226 leukemia; SF-268 CNS; SK-OV-3 ovarian; SW-620 colon; HCT-116 colon; HT29 colon; OVCAR-8 ovarian.
What all share (experiment): growth of human tumour cells (NCI), 48 h

“And” between values parts separate entries of the source, which are not always exact repeats. Equal values may be shown once.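 Tested at 5 concentrations; 48 h exposure; 96-well plates; endpoints linearly interpolated, else capped at highest concentration. The concentration for 50% growth inhibition is given as GI50. The concentration for full growth arrest is given as TGI.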

`N.N.N.N.N.N.O=N[O-].[Br-].[Co+3].[Co+3].[OH3+].[OH3+]`: the GI50 in the assay with COLO 205 colon, in the assay on KM12 colon, in the assay with LOX IMVI melanoma, with RPMI-8226 leukemia, in the assay on SF-268 CNS and in the assay on SK-OV-3 ovarian was > 100 µM in each case. Further, the GI50 with SW-620 colon was > 100 µM. Besides, the TGI with COLO 205 colon, in the assay with KM12 colon, in the assay with LOX IMVI melanoma, in the assay on RPMI-8226 leukemia, with SF-268 CNS and in the assay with SK-OV-3 ovarian was > 100 µM throughout. Also, in the assay on SW-620 colon, the TGI is > 100 µM.
On to `Cc1ccc(SC(=O)N2C(=S)NC(=NC3CCCCC3)C23CCCCC3)cc1`, for which the TGI in the assay on COLO 205 colon, in the assay on HCT-116 colon, in the assay on HT29 colon, in the assay on KM12 colon, with LOX IMVI melanoma and with RPMI-8226 leukemia was > 100 µM in each case. The TGI in the assay on SF-268 CNS, in the assay on SK-OV-3 ovarian and in the assay on SW-620 colon was > 100 µM throughout.
Take `c1cc(CNC2C3CCC(C3)C2c2c[nH]c3ccccc23)cc(CNC2C3CCC(C3)C2c2c[nH]c3ccccc23)c1` (stereo not drawn): the GI50 is 1.54 µM in the assay with COLO 205 colon; 0.331 µM and 0.154 µM in the assay with HT29 colon; 2.11 µM and 0.386 µM in the assay on SW-620 colon. The TGI in the assay on COLO 205 colon was 3.03 µM; in the assay on KM12 colon, 4.04 µM; in the assay on RPMI-8226 leukemia, > 100 µM; with SW-620 colon it was > 100 µM.
With `OCC1OC(n2cnc3c(/C=C(/O)c4ccccc4)ncnc32)C(O)C1O` (stereo not drawn), the TGI in the assay with COLO 205 colon is 2.7 µM; in the assay with HCT-116 colon, > 100 µM; in the assay on HT29 colon, > 100 µM; with KM12 colon, > 100 µM; in the assay with LOX IMVI melanoma it was > 100 µM; with OVCAR-8 ovarian, > 100 µM. Moreover, the TGI in the assay on RPMI-8226 leukemia, in the assay on SF-268 CNS and in the assay with SW-620 colon was > 100 µM throughout.
For `Cc1ccc(S(=O)(=O)N=Nc2c(O)[nH]c3c(Cl)cc(Cl)cc23)cc1`, the TGI with COLO 205 colon, in the assay with HCT-116 colon, in the assay with HT29 colon, with KM12 colon, in the assay with LOX IMVI melanoma and with OVCAR-8 ovarian was > 100 µM throughout. Moreover, the TGI in the assay on SK-OV-3 ovarian and in the assay with SW-620 colon was > 100 µM in each case.
Take `BrC1(Br)C2/C=C\CCCCC21` (stereo not drawn): the TGI with COLO 205 colon, in the assay on HCT-116 colon, in the assay with HT29 colon, in the assay with KM12 colon, in the assay with LOX IMVI melanoma and with OVCAR-8 ovarian was > 100 µM in each case. Also, the TGI in the assay with SF-268 CNS and with SW-620 colon was > 100 µM in each case.
For `S=c1nc(-c2cccnc2)[nH][nH]1`, the TGI with COLO 205 colon, with HCT-116 colon, in the assay with HT29 colon, with KM12 colon, with LOX IMVI melanoma and with RPMI-8226 leukemia was > 100 µM in each case. The TGI in the assay with SF-268 CNS, in the assay on SK-OV-3 ovarian and with SW-620 colon was > 100 µM in each case.
Turning to `O=C(O)CSc1ncccc1[N+](=O)[O-]`, the TGI with COLO 205 colon, with HCT-116 colon, in the assay with HT29 colon, in the assay with KM12 colon, in the assay with LOX IMVI melanoma and in the assay with OVCAR-8 ovarian was > 100 µM each time. The TGI in the assay with SF-268 CNS, with SK-OV-3 ovarian and with SW-620 colon was > 100 µM in each case.
In the case of `Cc1cc2c(=O)c3ccccc3[nH]c2c(C(=O)O)c1C`, the TGI with COLO 205 colon, in the assay on HCT-116 colon, in the assay with HT29 colon, in the assay on KM12 colon, with OVCAR-8 ovarian and with RPMI-8226 leukemia was > 100 µM throughout. Besides, in the assay with SW-620 colon, the TGI was > 100 µM.
Take `COc1cc2nc(-c3ccc(C(F)(F)F)cc3)cc(OCCCN3CCCCC3)c2cc1OC`: the GI50 with COLO 205 colon was 0.406 µM; in the assay with HCT-116 colon, 0.429 µM; with HT29 colon it was 0.415 µM; with KM12 colon, 2.92 µM; in the assay on LOX IMVI melanoma it was 0.162 µM; with OVCAR-8 ovarian, 0.734 µM. Moreover, the GI50 was 3.76 µM with SF-268 CNS, 2.3 µM in the assay with SK-OV-3 ovarian and 2.91 µM with SW-620 colon. In addition, the TGI in the assay on COLO 205 colon came to 1.94 µM; with HCT-116 colon, 11.6 µM; with HT29 colon, 2.52 µM; with KM12 colon, 26.9 µM; in the assay on LOX IMVI melanoma, 0.355 µM; in the assay on OVCAR-8 ovarian, 20.4 µM. Further, the TGI with SF-268 CNS was found to be 24.6 µM; in the assay with SK-OV-3 ovarian, 23.3 µM; with SW-620 colon, 13.3 µM.
For `COc1ccc(/C=C2\C(=O)N(C(=O)Cc3ccccc3)N=C2C)cc1OC`, the TGI in the assay on COLO 205 colon, in the assay on HCT-116 colon, in the assay with HT29 colon, in the assay with KM12 colon, in the assay with LOX IMVI melanoma and in the assay on OVCAR-8 ovarian was > 100 µM in each case. Also, the TGI with RPMI-8226 leukemia, with SF-268 CNS and in the assay on SW-620 colon was > 100 µM each time.
`CC(=O)O[C@@H]1C2C(=O)OC(=O)C2C2CCC[C@]23O[C@H]13` (stereo partly drawn): the TGI in the assay with COLO 205 colon, in the assay with HCT-116 colon, with KM12 colon, with OVCAR-8 ovarian, in the assay with RPMI-8226 leukemia and in the assay on SF-268 CNS was > 100 µM in each case. The TGI in the assay on SK-OV-3 ovarian and with SW-620 colon was > 100 µM throughout.
Take `Cc1c2cc[n+](C)cc2c(C)c2c1[nH]c1ccc(O)c(OCC(F)(F)F)c12`: the TGI was 12.6 µM in the assay with COLO 205 colon; 12.1 µM in the assay on HCT-116 colon; > 55 µM in the assay with HT29 colon; 46.5 µM with LOX IMVI melanoma; 25.5 µM in the assay with OVCAR-8 ovarian; 16.8 µM in the assay with RPMI-8226 leukemia. Moreover, the TGI is 1.1 µM in the assay with SF-268 CNS, 17.2 µM in the assay on SK-OV-3 ovarian and > 55 µM in the assay with SW-620 colon.
In the case of `CCN1CSC(=S)N(CC)C1`, the TGI with COLO 205 colon, with HCT-116 colon, with HT29 colon, with KM12 colon, in the assay with OVCAR-8 ovarian and in the assay on RPMI-8226 leukemia was > 100 µM throughout. In addition, the TGI in the assay with SF-268 CNS, in the assay on SK-OV-3 ovarian and in the assay on SW-620 colon was > 100 µM in each case.
For `CCOC(=O)[C@H]1Nc2ccc(OC)cc2C2c3ccccc3CC21` (stereo partly drawn), the TGI in the assay with COLO 205 colon, with HCT-116 colon, in the assay on HT29 colon, in the assay with KM12 colon, in the assay on LOX IMVI melanoma and in the assay with OVCAR-8 ovarian was > 100 µM each time. The TGI with RPMI-8226 leukemia, in the assay on SF-268 CNS and in the assay on SW-620 colon was > 100 µM each time.
For `Cc1c(Cl)cccc1NC(=O)CC1C(=O)Nc2ccccc2S1(=O)=O` (stereo not drawn), the TGI in the assay with HCT-116 colon stood at 30.3 µM; with HT29 colon, 38.2 µM; with LOX IMVI melanoma, 29.1 µM; in the assay on OVCAR-8 ovarian, 34.5 µM; with RPMI-8226 leukemia, 32.3 µM; in the assay with SF-268 CNS it was 38.2 µM. In the assay on SW-620 colon, this molecule gave a TGI of 43.7 µM.
`C/C(=N\NC(N)=S)c1nc2ccc(Cl)cc2[nH]1`: the GI50 in the assay on COLO 205 colon is 2.17 µM; in the assay on HCT-116 colon it was 2.11 µM; in the assay on HT29 colon it was 2.32 µM; with KM12 colon, 2.03 µM; in the assay on OVCAR-8 ovarian it was 2.57 µM; with RPMI-8226 leukemia, 3.3 µM. Further, the GI50 in the assay on SF-268 CNS was 2.03 µM; in the assay with SK-OV-3 ovarian, 2.31 µM; with SW-620 colon, 2.96 µM. Moreover, the TGI turned out to be 10.1 µM in the assay with COLO 205 colon; 8.85 µM in the assay with HCT-116 colon; 14 µM with HT29 colon; 16.2 µM in the assay with KM12 colon; 15.5 µM in the assay on OVCAR-8 ovarian; 30.6 µM with RPMI-8226 leukemia. Besides, the TGI was 11.3 µM with SF-268 CNS, 9.19 µM in the assay on SK-OV-3 ovarian and > 50 µM with SW-620 colon.
In the case of `Nc1nc(CCC(=O)Nc2cccc(C(F)(F)F)c2)cc(-c2ccc3ccccc3c2)n1`, the TGI with COLO 205 colon, in the assay on HCT-116 colon, in the assay on HT29 colon, in the assay on KM12 colon, in the assay on OVCAR-8 ovarian and in the assay with RPMI-8226 leukemia was > 100 µM in each case. Moreover, the TGI in the assay with SF-268 CNS, with SK-OV-3 ovarian and in the assay with SW-620 colon was > 100 µM throughout.
Turning to `Cc1cc(=O)oc2cc(O)c(CN(C)CC(=O)O)cc12`, the TGI with COLO 205 colon, in the assay on HCT-116 colon, in the assay on HT29 colon, with KM12 colon, in the assay with LOX IMVI melanoma and in the assay with OVCAR-8 ovarian was > 100 µM each time. Besides, the TGI in the assay with RPMI-8226 leukemia, in the assay on SF-268 CNS and in the assay on SW-620 colon was > 100 µM in each case.
Consider `C[C-](O)O.O/C(=C\[C-](O)c1ccccc1)c1ccccc1.O/C(=C\[C-](O)c1ccccc1)c1ccccc1.[Nd+3]` (stereo not drawn), for which the GI50 in the assay on COLO 205 colon is 14.7 µM; with HCT-116 colon, 4.24 µM; in the assay on HT29 colon it was 10.6 µM; in the assay with LOX IMVI melanoma it was 4.28 µM; in the assay on OVCAR-8 ovarian it was 4.48 µM; in the assay with RPMI-8226 leukemia, 6.43 µM. Besides, the GI50 is 6.44 µM in the assay on SF-268 CNS, 16.8 µM with SK-OV-3 ovarian and 6.94 µM in the assay with SW-620 colon. The TGI in the assay on COLO 205 colon amounted to 36.3 µM; in the assay on HCT-116 colon, 16.5 µM; in the assay with HT29 colon, 22.5 µM; in the assay with LOX IMVI melanoma, 17.7 µM; in the assay on OVCAR-8 ovarian, 55 µM; in the assay with RPMI-8226 leukemia, 33.5 µM. Also, the TGI in the assay with SF-268 CNS is 32.5 µM; in the assay on SK-OV-3 ovarian, 64.7 µM; with SW-620 colon, > 100 µM.
